# Reference: ChEMBL document CHEMBL5604062, “ASAP - ZIKV NS2B-NS3 protease fluorescence dose response” (2024)
# Where “and” joins values, the source holds several entries; their conditions need not be identical. Identical values can stand only once. Residues, ends and D or L forms follow the SMILES beside them. *: point of attachment. pNA = O=[N+]([O-])c1ccc(N*)cc1
# Target: Nonstructural protein 3 (Zika virus, UniProt A0A024AXB9)
# Assay: Functional biochemical assay to identify treatments for viral infectious disease that targets Zika NS2B-NS3 protease. Utilizing a direct enzyme activity measurement method, reading the fluorescence intensity is used to characterize the relative potency of inhibitors as IC50.
# Design: species or system PRVABC59
# Chain of Nonstructural protein 3 (A0A024AXB9 whole entry): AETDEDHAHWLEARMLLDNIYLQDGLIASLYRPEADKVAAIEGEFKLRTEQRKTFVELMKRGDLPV
row,Structure (SMILES),IC50
1,NCc1cccc(NC(=O)[C@@H](Cc2c[nH]c3ccccc23)NC(=O)OCc2ccccc2)c1,> 99.5 µM
2,COc1ccc(C)cc1S(=O)(=O)N[C@@H](C(=O)Nc1cccc(CN)c1)c1ccc(OCc2ccccc2)cc1,54.6 µM
3,CSCC[C@H](N)C(=O)N1CCC[C@H]1C(=O)Nc1ccc([N+](=O)[O-])cc1 (H-Met-Pro-pNA),> 99.5 µM
4,OC1(c2ccccc2)CCN(Cc2c[nH]c3ccccc23)CC1,> 99.5 µM
5,CCc1[nH]c(-c2ccccc2)cc1C(=O)Nc1cccc(-c2nnn[nH]2)c1,> 99.5 µM
6,CNC(=O)[C@H](Nc1cc(CN)cc(C(=O)O)c1)c1cc(Cl)cc(C2CC2)c1,0.795 µM
7,CC(C)[C@@H]1CC[C@@H](C)C[C@H]1C(=O)Nc1cccc(CN)c1,> 99.5 µM
8,O=C(N[C@@H](C(=O)NC1CCNCC1)c1ccc(OCc2ccccc2)cc1)OCc1ccccc1,> 99.5 µM
9,CC(C)(C)NC(=O)[C@H](Nc1ccc2c(c1)CNC2)c1cc(Cl)cc(C2CC2)c1,4.69 µM
10,NCc1cc(Cl)cc(C(=O)Nc2cc([C@H]3CCOC3)ccn2)c1,> 25 µM
11,Cn1ncc2c(C(=O)Nc3ccc4c(c3)CNC4)cc(Br)cc21,0.274 µM
12,CC(C)CO[C@]1(C)C(=O)Nc2cc(F)cc(C(=O)Nc3ccc4c(c3)CNC4)c21,2.48 µM
13,N[C@H]1CC[C@H](NC(=O)[C@@H](NC(=O)OCc2ccccc2)c2ccc(OCc3ccccc3)cc2)CC1,> 99.5 µM
14,O=C(Nc1ccc2c(c1)CNC2)N1CC[C@H](Oc2ccc(C3CC3)cn2)C1,> 25 µM
15,CN1CCn2nc(NC(=O)[C@@H](NC(=O)OCc3ccccc3)c3ccc(OCc4ccccc4)cc3)cc2C1,> 99.5 µM
16,C#C[C@H](Nc1cccc(C(=O)O)c1)c1cc(Cl)cc2[nH]ncc12,> 99.5 µM
17,N#Cc1cc(-c2ccc3[nH]c(C(=O)O)cc3c2)cc(N2CCCC2)c1,> 99.5 µM
18,Cc1[nH]c2ccc(Cl)cc2c1Cc1ccc(-c2nnn[nH]2)cc1,> 99.5 µM
19,C[C@]1(C(=O)N[C@H](C(=O)Nc2cccc(CN)c2)c2ccc(OCc3ccccc3)cc2)COc2ccccc2O1,17.2 µM
20,CCn1ccnc(N2CC[C@H](c3ccc(F)cc3)C2)c1=O,> 99.5 µM
21,Fc1cc(F)c2[nH]cc(CN3CCC(c4cscn4)CC3)c2c1F,> 99.5 µM
22,NCCc1cccc(NC(=O)[C@H]2[C@H]3CCCCC[C@H]3[C@H]2NC(=O)OCc2ccccc2)c1,7.87 µM

row,Structure (SMILES),IC50
1,O=C(Nc1cc(Cl)cc(C(=O)NCC2(CO)CCNCC2)c1)OCc1ccccc1,> 99.5 µM
2,O=C(O)c1cc(Cl)ccc1S(=O)(=O)N[C@H]1CC[C@@H](Oc2cnccn2)CC1,> 99.5 µM
3,O=C(Nc1ccc2c(c1)CNC2)c1ccc2cc[nH]c2c1,> 25 µM
4,NCc1ccc(C[C@H](NC(=O)c2ccccc2)C(=O)Nc2cccc(CN)c2)cc1,> 99.5 µM
5,COc1cccc(C2CCN(Cc3c[nH]c4ccccc34)CC2)c1,64.3 µM
6,NCc1cc(Cl)cc(C(=O)Nc2cccc(C3CCNCC3)c2)c1,25.8 µM
7,CC(C)(C)OC(=O)N[C@H](C(=O)Nc1ccc(CN)cc1)c1ccc(OCc2ccccc2)cc1,> 99.5 µM
8,NC1CN(c2ncccc2NS(=O)(=O)c2ccc(Oc3ccccc3Cl)cc2)C1,> 99.5 µM
9,O=C(Nc1nc(O)c2c(n1)CNC2)c1cc(Cl)cc2[nH]ncc12,8.43 µM
10,Cc1ccc(Oc2ncccc2C#N)c(-c2ccc3[nH]c(C(=O)O)cc3c2)c1,> 99.5 µM
11,NC[C@@H]1CN(c2cc(N3CC[C@H](N)C3)cc3c2COB3O)C(=O)O1,72 µM
12,O=C(Nc1cccc(-n2nn[nH]c2=O)c1)c1cc(Cl)cc(C2CC2)c1,> 99.5 µM
13,CCNC(=O)Nc1cc(Cl)cc(C(=O)Nc2ccc([C@H](CC)Cc3nnn[nH]3)cc2)c1,> 99.5 µM
14,Cc1ccc(-c2nnn[nH]2)cc1NC(=O)c1cc(Cl)cc(NC(=O)OCc2ccccc2)c1,58.7 µM
15,NCc1cccc(NC(=O)[C@H](NC(=O)OCc2ccccc2)c2cccc(OCc3ccccn3)c2)c1,> 99.5 µM
16,O=C(Cn1ccnc(N2CC[C@H](CO)C2)c1=O)NCc1ccsc1,> 99.5 µM
17,C[C@@]1(CNC(=O)c2cc(Cl)cc(NC(=O)OCc3ccccc3)c2)CNCCOC1,> 99.5 µM
18,CCn1cc(-c2cn(C)nc2C)nc(N2CC[C@@H](CO)C2)c1=O,> 99.5 µM
19,O=C(Nc1ccc2c(c1)CNC2)c1ccc2[nH]ncc2c1,2.01 µM
20,NC(=O)c1cc(Cl)ccc1NS(=O)(=O)c1ccc(-c2ccc(F)cc2)cc1,65.6 µM
21,Cc1c(C(=O)Nc2cc(C(=O)N[C@H]3CCNC3=O)ccn2)cc(C2CC2)n1C,> 25 µM
22,NCc1cccc(NC(=O)[C@@H](NC(=O)OCc2ccccc2)C2CCN(S(=O)(=O)Cc3ncon3)CC2)c1,> 99.5 µM

# The next lines start with the values.
row,IC50,Structure (SMILES)
1,1.1 µM,OCC#C[C@H](Nc1ccc2c(c1)CNC2)c1cc(Cl)cc2[nH]ncc12
2,26.5 µM,NCc1cccc(NC(=O)[C@H](NC(=O)COc2ccccc2)c2ccc(OCc3ccccc3)cc2)c1
3,0.199 µM,CCOCC1(c2nc3c(C(=O)Nc4ccc5c(c4)CNC5)cc(Cl)cc3[nH]2)CC1
4,> 25 µM,CC1=CC[C@H](c2cccc(-c3nn[nH]n3)c2)Nc2cc(Cl)ccc21
5,> 99.5 µM,CN(C)Cc1cc(NC(=O)[C@@H](NC(=O)OCc2ccccc2)c2ccc(OCc3ccccc3)cc2)ccc1Cl
6,> 99.5 µM,NCc1cccc(NC(=O)[C@@H](NC(=O)OCc2ccccc2)c2cccc(OCc3cncnc3)c2)c1
7,12.3 µM and 59.6 µM and 27 µM,NCc1cccc(CNC(=O)[C@H]2[C@H]3CCCCC[C@H]3[C@H]2NC(=O)OCc2ccccc2)c1
8,61 µM,N[C@@H]1CC[C@H](CCNC(=O)c2cc(Cl)cc(NC(=O)OCc3ccccc3)c2)C1
9,6.08 µM,O=C(Nc1ccc2c(c1)CNC2)c1nccc2[nH]ncc12
10,> 99.5 µM,O=C(Nc1cc(Cl)cc(C(=O)Nc2cccc(CC3CCNCC3)c2)c1)OCc1ccccc1
11,6.87 µM,O=C(Nc1cc(Cl)cc([C@H]2CN(Cc3ccccc3)C[C@@H]2c2cccc(-c3nn[nH]n3)c2)c1)OCc1ccccc1
12,> 99.5 µM,NCCCOc1cc2c(c(-c3ccc(N)nc3)c1)CCB(O)O2
13,> 25 µM,O=C(Nc1cc(-c2cccnc2)ccn1)c1cc2n(n1)CCO2
14,17.5 µM,O=C(O)c1cc2c(cc1NS(=O)(=O)c1ccc(Oc3ccccc3Cl)cc1)CCC2
15,> 99.5 µM,NCc1ccccc1C1CCN(C(=O)[C@H]2CCN3CC[C@H]2C3)CC1
16,24.7 µM,O=C(Nc1cc(Cl)cc(-c2ccc3nc(C(=O)O)ncc3c2)c1)OCc1ccccc1
17,36.2 µM,CS(=O)(=O)NC(=O)c1cc(Cl)ccc1NS(=O)(=O)c1ccc(Oc2ccccc2Cl)cc1
18,> 99.5 µM,Clc1ccc2ncn(Cc3ccc4c(c3)CNC4)c2c1
19,> 99.5 µM,N#C[C@H](Nc1cccn(CC(=O)O)c1=O)c1cc(Cl)cc(C2CC2)c1

row,IC50,Structure (SMILES)
1,7.91 µM,NCc1cccc(NC(=O)c2cc(Br)cc(NC(=O)OCc3ccccc3)c2)c1
2,> 99.5 µM,O=C(NCC1CC1)[C@H]1CCCC[C@H]1NS(=O)(=O)c1ccc(Oc2ccccc2Cl)cc1
3,43.3 µM,CS(=O)(=O)c1cc(CN)cc([C@@H]2C[C@H]2c2cc(Cl)cc(NC(=O)OCc3ccccc3)c2)c1
4,> 99.5 µM,CCn1c(=O)c(N2CCC[C@H]2CN2CCCC2)nc2ccccc21
5,> 99.5 µM,Cc1cc(C(=O)Nc2cccc(CN)c2)nc(C)n1
6,47.9 µM,NCc1cccc(NC(=O)[C@@H](NC(=O)OCc2ccccc2)c2ccc(OCc3ncccn3)cc2)c1
7,> 99.5 µM,O=C(Nc1ccc2c(c1)CNC2)C1CCCCC1
8,39.6 µM,NCc1cc(NC(=O)c2cc(Cl)cc(NC(=O)OCc3ccccc3)c2)cc(-c2cccc(CC(=O)O)c2)c1
9,> 99.5 µM,Cc1c(C(=O)Nc2cccc(CN)c2)cc(C2CCC2)n1C
10,> 99.5 µM,Cc1ncsc1C(=O)N[C@H](C(=O)Nc1cccc(CN)c1)c1ccc(OCc2ccccc2)cc1
11,0.046 µM and 0.043 µM,O=C(Nc1ccc2c(c1)CNC2)c1cccc2[nH]c(C(F)(F)F)cc12
12,> 99.5 µM,C=CC[C@H](Nc1cccc(-c2nn[nH]n2)c1)c1cc(Cl)cc2[nH]ncc12
13,> 25 µM,O=C(Nc1cc([C@H]2CCOC2)ccn1)c1ccc2scnc2c1
14,13.1 µM,NCc1cccc(CNC(=O)[C@H](NC(=O)OCc2ccccc2)c2ccc(OCc3ccccc3)cc2)c1
15,74.4 µM,NCc1cccc(NC(=O)c2cc(F)cc(NC(=O)OCc3ccccc3)c2F)c1
16,> 99.5 µM,O=C(Nc1cc(Cl)cc(C(=O)Nc2ncc([C@H]3CCCN3)s2)c1)OCc1ccccc1
17,> 99.5 µM,NCc1cccc(NS(=O)(=O)c2cc(Cl)cc(NC(=O)OCc3ccccc3)c2)c1
18,> 99.5 µM,COc1ccc(-c2cc(NS(=O)(=O)c3ccc(Cl)cc3C(=O)O)ccc2OC)cc1
19,> 99.5 µM,Cn1cc(CN2CCC(c3c[nH]c4cccnc34)CC2)c2ccccc21

row,IC50,Structure (SMILES)
1,0.457 µM,CCc1cc(Cl)cc(C(=O)Nc2ccc3c(c2)CNC3)c1
2,1.93 µM,CC(=O)N(c1ccc2c(c1)CNC2)[C@H](C(=O)NCC(F)F)c1cc(Cl)cc(C2CC2)c1
3,> 99.5 µM,CCn1c(=O)c(N2CC3(CCC3)C[C@@H]2C)nc2ccccc21
4,18.1 µM and 11.3 µM,NCc1cccc([C@@H]2C[C@H]2c2cc(Cl)cc(NC(=O)OCc3ccccc3)c2)c1
5,> 99.5 µM,CC(C)(C)OC(=O)Nc1cccc2[nH]cc(CN3CCC(c4cscn4)CC3)c12
6,13.4 µM,O=C(Nc1ccc2c(c1)CNC2)c1cc(Br)cc2cccnc12
7,> 99.5 µM,N#Cc1cc(F)cc(N2CC[C@H](CO)C2)c1
8,> 99.5 µM,O=C(O)c1ccc(NC(=O)c2cc(Cl)cc3[nH]ncc23)cc1
9,> 99.5 µM,O=C(Nc1cc(Cl)cc([C@H](Nc2cccc(-c3nn[nH]n3)c2)C(=O)NC[C@H]2CCCO2)c1)OCc1ccccc1
10,> 99.5 µM,CN1CC[C@H](C2CCN(S(=O)(=O)c3cc(F)cc(C(=O)O)c3)CC2)C1
11,> 25 µM,Cc1c(C(=O)Nc2cc(-c3cccnc3)ccn2)cc(C2CCC2)n1C
12,> 99.5 µM,CN(C)[C@@H]1CCC[C@@H](C(=O)Nc2cccc(CN)c2)C1
13,46.1 µM,O=C(Nc1ccc2c(c1)CNC2)c1n[nH]c2ncc(Br)cc12
14,> 99.5 µM,O=C1NC[C@H](c2ccc(OCc3ccccc3)c(Br)c2)N1C(=O)OCc1ccccc1
15,7.6 µM and 7.31 µM,NCc1cccc(NC(=O)[C@H](NC(=O)OCc2ccccc2)C2CCC(c3ccccc3)CC2)c1 (stereo not given in full)
16,> 99.5 µM,Cn1c(C(=O)N2CCCc3ccc(C(F)F)cc32)cc2c1CCNC2
17,> 99.5 µM,NS(=O)(=O)c1cc(F)c(Cl)cc1N1CCN(c2ccnc(O)c2)CC1
18,7.99 µM,CN(C)Cc1cc(Cl)cc(C(=O)Nc2cccc(CN)c2)c1
